pIC50: −log10 of the molar value. Where two headings read alike, the source gives them in different places.
Tested on: IL-1β production in PMA-differentiated THP-1 cells
Assay: IL-1β production in PMA-differentiated THP-1 cells stimulated with gramicidin (hTHP-1 assay containing 2% fetal bovine serum)
Assay type: cell-based, human
Conditions: 2% fetal bovine serum, read-out: hTHP-1 IC50 (Average IC50 of compounds in hTHP-1 assay)
Procedure, shortened: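 THP-1 cells were differentiated with PMA 20 ng/ml for 16-18 h, then plated at 50,000 cells/well in RPMI with 2% FBS. They were preincubated 1 h with compound (100–0.0017 μM final, 0.37% DMSO), then stimulated with gramicidin 5 μM for 2 h. Supernatant IL-1β was measured by HTRF.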

[1] = Homo sapiens, THP-1, Table B1, class symbols

| Compound | pIC50 (Table B1, class symbols) | other results |
| --- | --- | --- |
| Cc1sc(S(N)(=O)=NC(=O)Cc2c(C(C)C)ccc(F)c2C(C)C)cc1C(C)(C)O (single isomer, unassigned) [Example 173, (R) or (S)-N-(amino(4-(2-hydroxypropan-2-yl)-5-methylthiophen-2-yl)(oxo)-λ^6-sulfaneylidene)-2-(3-fluoro-2,6-diisopropylphenyl) acetamide] | 6.00 to 6.70 | – |
| CC(C)c1ccc(F)c(C(C)C)c1CC(=O)N=S(N)(=O)c1ccc(C(C)(C)O)s1 (single isomer, unassigned) [Example 175, (S) or (R)-N-(amino(5-(2-hydroxypropan-2-yl)thiophen-2-yl)(oxo)-λ^6-sulfaneylidene)-2-(3-fluoro-2,6-diisopropylphenyl) acetamide] | 5.30 to 6.00 | – |
| CC(C)c1ccc(F)c(C(C)C)c1CC(=O)N=S(N)(=O)c1ccc(C(C)(C)O)s1 (single isomer, unassigned) [Example 176, (R) or (S)-N-(amino(5-(2-hydroxypropan-2-yl)thiophen-2-yl)(oxo)-λ^6-sulfaneylidene)-2-(3-fluoro-2,6-diisopropylphenyl) acetamide] | 6.00 to 6.70 | – |
| CC(C)c1cc(F)c(F)c(C(C)C)c1CC(=O)N=S(N)(=O)c1nc(C(C)(C)O)cs1 (single isomer, unassigned) [Example 177, (R) or (S)-N-(amino(4-(2-hydroxypropan-2-yl)thiazol-2-yl)(oxo)-λ^6-sulfaneylidene)-2-(3,4-difluoro-2,6-diisopropylphenyl) acetamide] | 6.70 to 7.40 | – |
| CC(C)c1cc(F)c(F)c(C(C)C)c1CC(=O)N=S(N)(=O)c1nc(C(C)(C)O)cs1 (single isomer, unassigned) [Example 178, (S) or (R)-N-(amino(4-(2-hydroxypropan-2-yl)thiazol-2-yl)(oxo)-λ^6-sulfaneylidene)-2-(3,4-difluoro-2,6-diisopropylphenyl) acetamide] | 5.30 to 6.00 | – |
| CC(C)c1ccc(F)c(C(C)C)c1CC(=O)N=S(N)(=O)c1nc(C(C)(C)O)cs1 (single isomer, unassigned) [Example 181, (R) or (S)-N-(amino(4-(2-hydroxypropan-2-yl)thiazol-2-yl)(oxo)-λ^6-sulfaneylidene)-2-(3-fluoro-2,6-diisopropylphenyl) acetamide] | 6.70 to 7.40 | – |
| CC(C)c1ccc(F)c(C(C)C)c1CC(=O)N=S(N)(=O)c1nc(C(C)(C)O)cs1 (single isomer, unassigned) [Example 182, (S) or (R)-N-(amino(4-(2-hydroxypropan-2-yl)thiazol-2-yl)(oxo)-λ^6-sulfaneylidene)-2-(3-fluoro-2,6-diisopropylphenyl) acetamide] | 4.52 to 5.30 | – |
| CC(C)c1cc2c(c(C(C)C)c1CC(=O)N=S(N)(=O)c1cnc(C(C)(C)O)s1)COC2 (single isomer, unassigned) [Example 184, (S) or (R)-N-(amino(2-(2-hydroxypropan-2-yl)thiazol-5-yl)(oxo)-λ^6-sulfaneylidene)-2-(4,6-diisopropyl-1,3-dihydro-isobenzofuran-5-yl)acetamide] | 4.52 to 5.30 | – |
| COCc1cc(C(C)C)c(CC(=O)N=S(N)(=O)c2ncc(C(C)(C)O)s2)c(C(C)C)c1 (single isomer, unassigned) [Example 185, (R) or (S)-N-(amino(5-(2-hydroxypropan-2-yl)thiazol-2-yl)(oxo)-λ^6-sulfaneylidene)-2-(2,6-diisopropyl-4-(methoxymethyl)phenyl)acetamide] | 6.70 to 7.40 | – |
| COCc1cc(C(C)C)c(CC(=O)N=S(N)(=O)c2ncc(C(C)(C)O)s2)c(C(C)C)c1 (single isomer, unassigned) [Example 186, (S) or (R)-N-(amino(5-(2-hydroxypropan-2-yl)thiazol-2-yl)(oxo)-λ^6-sulfaneylidene)-2-(2,6-diisopropyl-4-(methoxymethyl)phenyl)acetamide] | 4.52 to 5.30 | – |
| CC(C)c1ccc(F)c(C(C)C)c1CC(=O)N=S(N)(=O)c1ncc(C(C)(C)O)s1 (single isomer, unassigned) [Example 187, (S) or (R)-N-(amino(5-(2-hydroxypropan-2-yl)thiazol-2-yl)(oxo)-λ^6-sulfaneylidene)-2-(3-fluoro-2,6-diisopropylphenyl) acetamide] | 4.52 to 5.30 | – |
| CC(C)c1cc(C#N)c(F)c(C(C)C)c1CC(=O)N=S(N)(=O)c1nc(C(C)(C)O)cs1 (single isomer, unassigned) [Example 190, (R) or (S)-N-(amino(4-(2-hydroxypropan-2-yl)thiazol-2-yl)(oxo)-λ^6-sulfaneylidene)-2-(4-cyano-3-fluoro-2,6-diisopropylphenyl) acetamide] | 6.70 to 7.40 | – |
| CC(C)c1cc2c(c(C(C)C)c1CC(=O)N=S(N)(=O)c1ccc(CN(C)C)cc1)COC2 (single isomer, unassigned) [Example 191, (R) or (S)-N-(amino(4-((dimethylamino)methyl)phenyl)(oxo)-λ^6-sulfaneylidene)-2-(4,6-diisopropyl-1,3-dihydroisobenzofuran-5-yl)acetamide] | – | pIC50 [1]: 5.30 to 6.00 |
| CC(C)c1cc(F)cc(C(C)C)c1C(C)C(=O)N=S(N)(=O)c1cnc(C(C)(C)O)s1 (single isomer, unassigned) [Example 195, (R, R) or (R, S)-N-(amino (2-(2-hydroxypropan-2-yl)thiazol-5-yl)(oxo)-λ^6-sulfaneylidene)-2-(4-fluoro-2,6-diisopropylphenyl) propanamide] | – | pIC50 (Homo sapiens, THP-1, Table B1, cells printed as numeric bound): < 4.52 |
| CC(C)(O)c1ncc(S(N)(=O)=NC(=O)Cc2c(C3CC3)cc(F)cc2C(F)(F)F)s1 (single isomer, unassigned) [Example 196, (R) or (S)-N-(amino (2-(2-hydroxypropan-2-yl)thiazol-5-yl)(oxo)-λ^6-sulfaneylidene)-2-(2-cyclopropyl-4-fluoro-6-(trifluoromethyl)phenyl) acetamide] | – | pIC50 [1]: 4.52 to 5.30 |

Continued, in another order:

| pIC50 (Table B1, class symbols) | Compound | other results |
| --- | --- | --- |
| 5.30 to 6.00 | CC(C)c1cc(-c2ccc(Cl)c(Cl)c2)cc(C(C)C)c1CC(=O)N=S(N)(=O)c1ncc(C(C)(C)O)s1 (single isomer, unassigned) [Example 169, (S) or (R)-N-(amino(5-(2-hydroxypropan-2-yl)thiazol-2-yl)(oxo)-λ^6-sulfaneylidene)-2-(3′,4′-dichloro-3,5-diisopropyl-[1,1′-biphenyl]-4-yl)acetamide] | – |
| 6.00 to 6.70 | CC(C)c1cc(-c2ccc(Cl)c(Cl)c2)cc(C(C)C)c1CC(=O)N=S(N)(=O)c1ncc(C(C)(C)O)s1 (single isomer, unassigned) [Example 170, (R) or (S)-N-(amino(5-(2-hydroxypropan-2-yl)thiazol-2-yl)(oxo)-λ^6-sulfaneylidene)-2-(3′,4′-dichloro-3,5-diisopropyl-[1,1′-biphenyl]-4-yl)acetamide] | – |
| 6.00 to 6.70 | CC(C)c1cc(-c2ccc3c(c2)COCC3)cc(C(C)C)c1CC(=O)N=S(N)(=O)c1cnc(C(C)(C)O)s1 (single isomer, unassigned) [Example 171, (R) or (S)-N-(amino(2-(2-hydroxypropan-2-yl)thiazol-5-yl)(oxo)-λ^6-sulfaneylidene)-2-(4-(isochroman-7-yl)-2,6-diisopropylphenyl) acetamide] | – |
| 4.52 to 5.30 | CC(C)c1cc(-c2ccc3c(c2)COCC3)cc(C(C)C)c1CC(=O)N=S(N)(=O)c1cnc(C(C)(C)O)s1 (single isomer, unassigned) [Example 172, (S) or (R)-N-(amino(2-(2-hydroxypropan-2-yl)thiazol-5-yl)(oxo)-λ^6-sulfaneylidene)-2-(4-(isochroman-7-yl)-2,6-diisopropylphenyl) acetamide] | – |
| 4.52 to 5.30 | Cc1sc(S(N)(=O)=NC(=O)Cc2c(C(C)C)ccc(F)c2C(C)C)cc1C(C)(C)O (single isomer, unassigned) [Example 174, (S) or (R)-N-(amino(4-(2-hydroxypropan-2-yl)-5-methylthiophen-2-yl)(oxo)-λ^6-sulfaneylidene)-2-(3-fluoro-2,6-diisopropylphenyl) acetamide] | – |
| 6.00 to 6.70 | CC(C)c1ccc(C#N)c(C(C)C)c1CC(=O)N=S(N)(=O)c1nc(C(C)(C)O)cs1 (single isomer, unassigned) [Example 179, (R) or (S)-N-(amino(4-(2-hydroxypropan-2-yl)thiazol-2-yl)(oxo)-λ^6-sulfaneylidene)-2-(3-cyano-2,6-diisopropylphenyl) acetamide] | – |
| 4.52 to 5.30 | CC(C)c1ccc(C#N)c(C(C)C)c1CC(=O)N=S(N)(=O)c1nc(C(C)(C)O)cs1 (single isomer, unassigned) [Example 180, (S) or (R)-N-(amino(4-(2-hydroxypropan-2-yl)thiazol-2-yl)(oxo)-λ^6-sulfaneylidene)-2-(3-cyano-2,6-diisopropylphenyl) acetamide] | – |
| 6.00 to 6.70 | CC(C)c1cc2c(c(C(C)C)c1CC(=O)N=S(N)(=O)c1cnc(C(C)(C)O)s1)COC2 (single isomer, unassigned) [Example 183, (R) or (S)-N-(amino(2-(2-hydroxypropan-2-yl)thiazol-5-yl)(oxo)-λ^6-sulfaneylidene)-2-(4,6-diisopropyl-1,3-dihydro-isobenzofuran-5-yl)acetamide] | – |
| 6.00 to 6.70 | CC(C)c1ccc(F)c(C(C)C)c1CC(=O)N=S(N)(=O)c1ncc(C(C)(C)O)s1 (single isomer, unassigned) [Example 188, (R) or (S)-N-(amino(5-(2-hydroxypropan-2-yl)thiazol-2-yl)(oxo)-λ^6-sulfaneylidene)-2-(3-fluoro-2,6-diisopropylphenyl) acetamide] | – |
| 5.30 to 6.00 | CC(C)c1cc(C#N)c(F)c(C(C)C)c1CC(=O)N=S(N)(=O)c1nc(C(C)(C)O)cs1 (single isomer, unassigned) [Example 189, (S) or (R)-N-(amino(4-(2-hydroxypropan-2-yl)thiazol-2-yl)(oxo)-λ^6-sulfaneylidene)-2-(4-cyano-3-fluoro-2,6-diisopropylphenyl) acetamide] | – |

Source: patent US20230059136A1, “THE COMPOUNDS AND COMPOSITIONS FOR TREATING CONDITIONS ASSOCIATED WITH NLRP ACTIVITY” (Novartis AG, priority 2018, published 2023)
